Measurements taken from patent publication US9993001B2, “Herbicidal composition” (ISHIHARA SANGYO KAISHA, LTD., priority 2014, dated 2018).

How the values were obtained:
Format in all cases: in vivo
[1] = tested on: common lambsquarters (Chenopodium album L.); test: Test Example 20: pot, soil treatment, metobromuron + chlorpropham; conditions: soil treatment, pot, 26th day after treatment, read-out: Growth inhibition rate of common lambsquarters (%) Measured value
Excerpt: (§1) When the herbicidal activity in a case where two active ingredients are combined, is larger than the simple sum of the respective herbicidal activities of the two active ingredients (the expected activity), it is called a synergistic effect. The activity expected by the combination of two active ingredients can be calculated as follows (Colby S. R., “Weed”, vol. 15, p. 20-22, 1967). E=α+β−(α×β[…]) where α: growth inhibition rate when treated with x (g/ha) of herbicide X, • β: growth inhibition rate when treated with y (g/ha) of herbicide Y, • E: growth inhibition rate expected when treated with x (g/ha) of herbicide X and y (g/ha) of herbicide Y.
(§2) On the 19th day after treatment, the state of growth of barnyardgrass was visually observed and evaluated in accordance with the following standards. The growth inhibition rate (%) [measured value] and the growth inhibition rate (%) [calculated value] calculated by the Colby's method, are shown in Table 2.
(§3) Growth inhibition rate (%)=inhibition rate) (%) of 0 (equivalent to the non-treated area) to 100 (complete kill)
(§4) Soil was put into a 1/300,000 ha pot, and seeds of barnyardgrass (Echinochloa crus-galli L.) were sown. On the day after seeding, predetermined amounts of SC containing metobromuron as active ingredient (same as in Test Example 1) and EC containing chlorpropham as active ingredient (same as in Test Example 1) were diluted with water corresponding to 1,000 L per hectare and applied for soil treatment.
(§5) On the 26th day after treatment, the state of growth of barnyardgrass was visually observed and evaluated in the same manner as in Test Example 1.
The test was carried out in the same manner as in Test Example 18 except that barnyardgrass (Echinochloa crus-galli L.) was changed to common lambsquarters (Chenopodium album L.), to obtain the results as shown in Table 21.

[2] = tested on: barnyardgrass (Echinochloa crus-galli L.); test: Test Example 32: pot, soil treatment, metobromuron + chlorpropham; conditions: soil treatment, pot, 26th day after treatment, read-out: Growth inhibition rate of barnyardgrass (%) Measured value
Excerpt: as §1, §2, §3, §4, §5

[3] = tested on: barnyardgrass (Echinochloa crus-qalli L.); test: Test Example 1: soybean field, soil treatment, metobromuron + chlorpropham; conditions: 916 g/ha, soil treatment, soybean field, 19th day after treatment, read-out: Growth inhibition rate of barnyardgrass (%) Measured value
Excerpt: When the herbicidal activity in a case where two active ingredients are combined, is larger than the simple sum of the respective herbicidal activities of the two active ingredients (the expected activity), it is called a synergistic effect. The activity expected by the combination of two active ingredients can be calculated as follows (Colby S. R., “Weed”, vol. 15, p. 20-22, 1967). E=α+β−(α×β[…]) where α: growth inhibition rate when treated with x (g/ha) of herbicide X, • β: growth inhibition rate when treated with y (g/ha) of herbicide Y, • E: growth inhibition rate expected when treated with x (g/ha) of herbicide X and y (g/ha) of herbicide Y. […]
as §2, with “2. […]” for “2.”

[4] = tested on: black nightshade (Solanum nigrum L.); test: Test Example 17: pot, soil treatment, metobromuron + chlorpropham; conditions: soil treatment, pot, 21st day after treatment, read-out: Growth inhibition rate of black nightshade (%) Measured value
Excerpt: as §1, §2, §3, §4
(§6) On the 21st day after treatment, the state of growth of barnyardgrass was visually observed and evaluated in the same manner as in Test Example 1.
The test was carried out in the same manner as in Test Example 15 except that barnyardgrass (Echinochloa crus-galli L.) was changed to black nightshade (Solanum nigrum L.), to obtain the results as shown in Table 18.

[5] = tested on: barnyardgrass (Echinochloa crus-galli L.); test: Test Example 18: pot, soil treatment, metobromuron + chlorpropham; conditions: 500 g/ha, soil treatment, pot, 26th day after treatment, read-out: Growth inhibition rate of barnyardgrass (%) Measured value
Excerpt: as §1, §2, §3
(§7) Soil was put into a 1/300,000 ha pot, and seeds of barnyardgrass (Echinochloa crus-galli L.) were sown. […]
as §5

[6] = tested on: giant foxtail (Setaria faberi Herrm.); test: Test Example 16: pot, soil treatment, metobromuron + chlorpropham; conditions: soil treatment, pot, 21st day after treatment, read-out: Growth inhibition rate of giant foxtail (%) Measured value
Excerpt: as §1, §2, §3, §4, §6
The test was carried out in the same manner as in Test Example 15 except that barnyardgrass (Echinochloa crus-galli L.) was changed to giant foxtail (Setaria faberi Herrm.), to obtain the results as shown in Table 17.

[7] = tested on: barnyardgrass (Echinochloa crus-galli L.); test: Test Example 15: pot, soil treatment, metobromuron + chlorpropham; conditions: 750 g/ha, soil treatment, pot, 21st day after treatment, read-out: Growth inhibition rate of barnyardgrass (%) Measured value
Excerpt: as §1, §2, §3, §7, §6

[8] = tested on: annual bluegrass (Poa annua L.); test: Test Example 19: pot, soil treatment, metobromuron + chlorpropham; conditions: 250 g/ha, soil treatment, pot, 26th day after treatment, read-out: Growth inhibition rate of annual bluegrass (%) Measured value
[9] = tested on: large crabgrass (Diqitaria sanquinalis L.); test: Test Example 11: corn field, foliar treatment, metobromuron + nicosulfuron; conditions: Digitaria sanguinalis; 30 g/ha; foliar treatment at 1.5 to 2.0 leaf stage, corn field; 30th day after treatment; read-out: Growth inhibition rate of large crabgrass (%) Measured value
Excerpt: as §1, §2
(§8) Growth inhibition rate (%)=inhibition rate) (%) of 0 (equivalent to the non-treated area) to 100 (complete kill) […]
On the 30th day after treatment, the state of growth of large crabgrass was visually observed and evaluated in the same manner as in Test Example 1.

[10] = tested on: common purslane (Portulaca oleracea L.); test: Test Example 12: corn field, soil treatment, metobromuron + nicosulfuron; conditions: 30 g/ha, soil treatment, corn field, 30th day after treatment, read-out: Growth inhibition rate of common purslane (%) Measured value
Excerpt: as §1, §2, §8
On the 30th day after treatment, the state of growth of common purslane (Portulaca oleracea L.) which occurred naturally, was visually observed and evaluated in the same manner as in Test Example 1.

[11] = tested on: large crabgrass (Digitaria sanquinalis L.); test: Test Example 28: pot, soil treatment, metobromuron + pendimethalin; conditions: 62.5 g/ha, soil treatment, pot, 27th day after treatment, read-out: Growth inhibition rate of large crabgrass (%) Measured value
Excerpt: as §1, §2, §3
Soil was put into a 1/300,000 ha pot, and seeds of large crabgrass (Digitaria sanquinalis L.) were sown. On the day after seeding, predetermined amounts of SC containing metobromuron as active ingredient (same as in Test Example 1) and EC containing pendimethalin as active ingredient (same as in Test Example 10) were diluted with water corresponding to 1,000 L per hectare and applied for soil treatment.
On the 27th day after treatment, the state of growth of large crabgrass was visually observed and evaluated in the same manner as in Test Example 1.

polygonaceae weeds = test: Test Example 10: corn field, soil treatment, metobromuron + pendimethalin; conditions: 600 g/ha; soil treatment, corn field; 49th day after treatment; read-out: Growth inhibition rate of Polygonaceae weeds (%) Measured value
Excerpt: as §1, §2, §8
On the 49th day after treatment, the state of growth of polygonaceae weeds which occurred naturally, was visually observed and evaluated in the same manner as in Test Example 1, The results are shown in Table 11.

[12] = tested on: common lambsquarters (Chenopodium album L.); test: Test Example 8: corn field, soil treatment, metobromuron + S-metolachlor; conditions: 1000 g/ha, soil treatment, corn field, 28th day after treatment, read-out: Growth inhibition rate of common lambsquarters (%) Measured value
Excerpt: as §1, §2, §8
On the 28th day after treatment, the state of growth of common lambsquarters (Chenopodium album L.) which occurred naturally, was visually observed and evaluated in the same manner as in Test Example 1.

[13] = tested on: Nepalese Smartweed (Persicaria nepalensis (Meisn.) H. Gross); test: Test Example 3: soybean field, soil treatment, metobromuron + S-metolachlor; conditions: 1000 g/ha, soil treatment, soybean field, 50th day after treatment, read-out: Growth inhibition rate of Nepalese Smartweed (%) Measured value
Excerpt: as §1, §2, §8
On the 50th day after treatment, the state of growth of Nepalese Smartweed (Persicaria nepalensis (Meisn.) H. Gross) which occurred naturally, was visually observed and evaluated in the same manner as in Test Example 1.

[14] = tested on: redroot pigweed (Amaranthus retroflexus L.); test: Test Example 9: corn field, soil treatment, metobromuron + S-metolachlor; conditions: 1000 g/ha, soil treatment, corn field, 49th day after treatment, read-out: Growth inhibition rate of redroot pigweed (%) Measured value
Excerpt: as §1, §2, §8
On the 49th day after treatment, the state of growth of redroot pigweed (Amaranthus retroflexus L.) which occurred naturally, was visually observed and evaluated in the same manner as in Test Example 1.

[15] = tested on: Nepalese Smartweed (Persicaria nepalensis (Meisn.) H. Gross); test: Test Example 6: adzuki bean field, soil treatment, metobromuron + S-metolachlor; conditions: 1000 g/ha, soil treatment, adzuki bean field, 39th day after treatment, read-out: Growth inhibition rate of Nepalese Smartweed (%) Measured value
Excerpt: as §1, §2, §3
In an adzuki bean agricultural field (9.6 square meters per one test section), predetermined amounts of SC containing metobromuron as active ingredient (same as in Test Example 1) and EC containing S-metolachlor as active ingredient (same as in Test Example 2) were diluted with water corresponding to 1,000 L per hectare and applied for soil treatment, prior to germination of adzuki bean and weeds.
On the 39th day after treatment, the state of growth of Nepalese Smartweed (Persicaria nepalensis (Meisn.) H. Gross) which occurred naturally, was visually observed and evaluated in the same manner as in Test Example 1.

[16] = tested on: spotted knotweed (Polygonum lapathifolium L.); test: Test Example 2: soybean field, soil treatment, metobromuron + S-metolachlor; conditions: Persicaria lapathifolia; 1000 g/ha; soil treatment, soybean field; 50th day after treatment; read-out: Growth inhibition rate of spotted knotweed (%) Measured value
Excerpt: as §1, §2, §8
On the 50th day after treatment, the state of growth of spotted knotweed was visually observed and evaluated in the same manner as in Test Example 1.

With `CC(C)OC(=O)Nc1cccc(Cl)c1` [Chlorpropham, isopropyl 3-chlorocarbanilate] the inhibition at 125 g/ha ([1]; 125 g/ha) was 20%, the inhibition at 250 g/ha ([1]; 250 g/ha) was 30% and the inhibition at 1000 g/ha ([1]; 1000 g/ha) was 50%. The inhibition at 125 g/ha ([2]; 125 g/ha) was 10%, the inhibition at 250 g/ha ([2]; 250 g/ha) was 0% and the inhibition at 500 g/ha ([2]; 500 g/ha) was 70%. The inhibition at 916 g/ha [3] was 8%, the inhibition at 750 g/ha ([4]; 750 g/ha) was 0% and the inhibition at 1000 g/ha ([4]; 1000 g/ha) was 0%. The inhibition at 500 g/ha [5] was 70%, the inhibition at 750 g/ha ([6]; 750 g/ha) was 0% and the inhibition at 1000 g/ha ([6]; 1000 g/ha) was 0%. It also gave an inhibition at 750 g/ha [7] of 0% and an inhibition at 250 g/ha [8] of 10%.

`COc1cc(OC)nc(NC(=O)NS(=O)(=O)c2ncccc2C(=O)N(C)C)n1` [Nicosulfuron, 2-[(4,6-dimethoxypyrimidin-2-ylcarbamoyl)sulfamoyl]-N,N-dimethyl nicotinamide] showed an inhibition at 30 g/ha [9] of 10% and an inhibition at 30 g/ha [10] of 55%.

Molecule `CCC(CC)Nc1c([N+](=O)[O-])cc(C)c(C)c1[N+](=O)[O-]` [Pendimethalin, N-(1-ethylpropyl)-2,6-dinitro-3,4-xylidine] has an inhibition at 62.5 g/ha [11] of 70% and an inhibition at 600 g/ha (polygonaceae weeds) of 73%.

Molecule `CCc1cccc(C)c1N(C(=O)CCl)[C@@H](C)COC` [S-Metolachlor, 2-chloro-N-(6-ethyl-o-tolyl)-N-[(1S)-2-methoxy-1-methylethyl]acetamide] has an inhibition at 1000 g/ha [12] of 69%, an inhibition at 1000 g/ha [13] of 10% and an inhibition at 1000 g/ha [14] of 45%. The inhibition at 1000 g/ha [15] was 75% and the inhibition at 1000 g/ha [16] was 59%.
